Consider 15 compounds from patent US11478515B2, “Compositions comprising probiotic and prebiotic components and mineral salts, with lactoferrin” (GlaxoSmithKline Consumer Healthcare S.R.L., priority 2009, dated 2022).

Where a SMILES comes first, the peptide text is derived from it. Bridges are numbered along the chain shown (N, C = ends). [ ]: non-standard residue; d: D form. The star is where a group is joined. Ileψ(thiazoline)Cys = CC[C@H](C)[C@H](N)C1=N[C@H](C(=O)*)CS1; dOrn = NCCC[C@@H](N)C(=O)O

This assay deals with Bifidobacterium longum R175. Nature of the assay: antibiotic resistance profile. The class given is cell-based. The note with it: dose of each agent.
As for `CC1(C)S[C@@H]2[C@H](NC(=O)[C@H](N)c3ccccc3)C(=O)N2[C@H]1C(=O)O` [Ampicillin], the “outcome (antibiotic resistance profile)” value is on record as “susceptible”.

Turning to `CC[C@H](C)[C@H](N)C1=N[C@H](C(=O)N[C@@H](CC(C)C)C(=O)N[C@H](CCC(=O)O)C(=O)N[C@H](C(=O)N[C@H]2CCCCNC(=O)[C@H](CC(N)=O)NC(=O)[C@@H](CC(=O)O)NC(=O)[C@H](Cc3cnc[nH]3)NC(=O)[C@@H](Cc3ccccc3)NC(=O)[C@H]([C@@H](C)CC)NC(=O)[C@@H](CCCN)NC2=O)[C@@H](C)CC)CS1` [Bacitracin] ({Ileψ(thiazoline)Cys}-L[dE]IK[dOrn]I[dF]H[dD]N; lactam 4-C), the “outcome (antibiotic resistance profile)” value is “susceptible”.

With `CO[C@H]1/C=C/O[C@@]2(C)Oc3c(C)c(O)c4c(O)c(c(/C=N/N5CCN(C)CC5)c(O)c4c3C2=O)NC(=O)/C(C)=C\C=C\[C@H](C)[C@H](O)[C@@H](C)[C@@H](O)[C@@H](C)[C@H](OC(C)=O)[C@@H]1C` [Rifampin], the “outcome (antibiotic resistance profile)” value is recorded as “susceptible”.

As for `CN[C@H](CC(C)C)C(=O)N[C@H]1C(=O)N[C@@H](CC(N)=O)C(=O)N[C@H]2C(=O)N[C@H]3C(=O)N[C@H](C(=O)N[C@H](C(=O)O)c4cc(O)cc(O)c4-c4cc3ccc4O)[C@H](O)c3ccc(c(Cl)c3)Oc3cc2cc(c3O[C@@H]2O[C@H](CO)[C@@H](O)[C@H](O)[C@H]2O[C@H]2C[C@](C)(N)[C@H](O)[C@H](C)O2)Oc2ccc(cc2Cl)[C@H]1O` [Vancomycin], the “outcome (antibiotic resistance profile)” value was “susceptible”.

With `CC(=O)OCC1=C(C(=O)O)N2C(=O)[C@@H](NC(=O)Cc3cccs3)[C@H]2SC1` [cephalothin], the “outcome (antibiotic resistance profile)” value is recorded as “susceptible”.

As for `O=C(N[C@H](CO)[C@H](O)c1ccc([N+](=O)[O-])cc1)C(Cl)Cl` [chloramphenicol], the “outcome (antibiotic resistance profile)” value is reported as “susceptible”.

Regarding `CC[C@H]1OC(=O)[C@H](C)[C@@H](O[C@H]2C[C@@](C)(OC)[C@@H](O)[C@H](C)O2)[C@H](C)[C@@H](O[C@@H]2O[C@H](C)C[C@H](N(C)C)[C@H]2O)[C@](C)(O)C[C@@H](C)C(=O)[C@H](C)[C@@H](O)[C@]1(C)O` [erythromycin], the “outcome (antibiotic resistance profile)” value was “susceptible”.

As for `CCC[C@@H]1C[C@@H](C(=O)N[C@@H]([C@H]2O[C@H](SC)[C@H](O)[C@@H](O)[C@H]2O)[C@@H](C)O)N(C)C1` [lincomycin], the “outcome (antibiotic resistance profile)” value was “intermediate”.

On to `CO[C@@H]1[C@@H](OC(N)=O)[C@@H](O)[C@H](Oc2ccc3c(O)c(NC(=O)c4ccc(O)c(CC=C(C)C)c4)c(=O)oc3c2C)OC1(C)C` [novobiocin], for which the “outcome (antibiotic resistance profile)” value is listed as “susceptible”.

As for `CC1(C)S[C@@H]2[C@H](NC(=O)Cc3ccccc3)C(=O)N2[C@H]1C(=O)O` [penicillin G], the “outcome (antibiotic resistance profile)” value is “susceptible”.

Consider `[H]/N=C(/N)N[C@H]1[C@H](O)[C@@H](O)[C@H](O[C@@H]2O[C@@H](C)[C@](O)(C=O)[C@H]2O[C@@H]2O[C@@H](CO)[C@H](O)[C@@H](O)[C@@H]2NC)[C@@H](N/C(N)=N\[H])[C@@H]1O` [streptomycin], for which the “outcome (antibiotic resistance profile)” value is given as “resistant”.

Take `Cc1noc(NS(=O)(=O)c2ccc(N)cc2)c1C` [sulfisoxazole]: the “outcome (antibiotic resistance profile)” value was “resistant”.

For Neomycin, the “outcome (antibiotic resistance profile)” value is “resistant”.

On to Polymyxin B, for which the “outcome (antibiotic resistance profile)” value is reported as “resistant”.

gentamycin: the “outcome (antibiotic resistance profile)” value is reported as “resistant”.
